Patent US4576948A, “Composition and method for inhibiting terminal deoxyribonucleotidyl transferase activity” (Trustees Boston University, priority 1983, dated 1986)
Each block holds one compound with its values, some of them ahead of it.

How the values were obtained:
[1] = target: T1, terminal deoxyribonucleotidyl transferase (TdT) (Bos taurus, UniProt P06526); assay: TdT assay (3H-dGMP incorporation) with purified TdT; format: biochemical, calf; conditions: for CMP 3H--dGMP inc.: 200 μM compound, 35° C., 1 hour, 10 μM 3H-dGTP, DMSO only control 12,131; for CMP Incorporated, TdT: additive at 400 M (so in the source), DMSO control 12,131; for TdT inhibition (in words): concentration not given
T1 construct: classical preparation may be proteolysed two-subunit form of one gene product
T1 sequence (P06526 whole entry): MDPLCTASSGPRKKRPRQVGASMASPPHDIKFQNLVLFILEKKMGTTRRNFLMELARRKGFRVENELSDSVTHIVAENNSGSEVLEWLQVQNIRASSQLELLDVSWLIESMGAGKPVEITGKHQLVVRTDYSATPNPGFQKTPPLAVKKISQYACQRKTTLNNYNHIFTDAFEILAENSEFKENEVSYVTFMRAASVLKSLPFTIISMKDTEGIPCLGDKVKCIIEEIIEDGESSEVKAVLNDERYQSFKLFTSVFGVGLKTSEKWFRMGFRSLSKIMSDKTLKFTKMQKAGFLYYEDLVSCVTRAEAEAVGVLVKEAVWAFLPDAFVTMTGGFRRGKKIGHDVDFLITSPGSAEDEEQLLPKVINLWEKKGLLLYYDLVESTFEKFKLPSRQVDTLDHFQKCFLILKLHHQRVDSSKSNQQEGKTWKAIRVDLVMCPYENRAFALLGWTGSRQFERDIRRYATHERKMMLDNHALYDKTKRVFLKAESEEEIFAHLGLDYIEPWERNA
Method: (§1) TdT was purified from normal calf thymus gland by a procedure utilizing the successive steps of homogenization, ion exchange […] and gel filtration. Bollum et al, "The Enzymes", (R. D. Boxer Ed.) pp. 145-171, Academic Press, New York. TdT was assayed at 35° C. for 1 hour in 0.1 ml total volume of a reaction mixture comprising 0.05 M Tris-HCl (pH 8.3), 2 mM […], 0.6 mM MnCl2, 10 μg bovine serum albumin (BSA), 1 μg oligodA14-18, 10 μM ^3 H-dGTP (d-triphosphate) and chelex distilled H2 O. When used, the 6-anilinouracil derivates were added at various concentrations in 5 μl DMSO per 100 μl reaction mix. Other DNA polymerases (α, β, and γ) were assayed using standard assay conditions, as previously described by Wright, Baril and Brown, Nucleic Acids Research, Vol. 8, No. 1, pp. 99-109, 1980.
Reaction conditions used were as noted above.

HeLa cell polymerase α [2] = target: T2, HeLa cell polymerase α (Homo sapiens, UniProt P09884); conditions: background statement; no other mammalian cell DNA polymerase inhibited; cited from earlier work
T2 sequence (P09884 whole entry): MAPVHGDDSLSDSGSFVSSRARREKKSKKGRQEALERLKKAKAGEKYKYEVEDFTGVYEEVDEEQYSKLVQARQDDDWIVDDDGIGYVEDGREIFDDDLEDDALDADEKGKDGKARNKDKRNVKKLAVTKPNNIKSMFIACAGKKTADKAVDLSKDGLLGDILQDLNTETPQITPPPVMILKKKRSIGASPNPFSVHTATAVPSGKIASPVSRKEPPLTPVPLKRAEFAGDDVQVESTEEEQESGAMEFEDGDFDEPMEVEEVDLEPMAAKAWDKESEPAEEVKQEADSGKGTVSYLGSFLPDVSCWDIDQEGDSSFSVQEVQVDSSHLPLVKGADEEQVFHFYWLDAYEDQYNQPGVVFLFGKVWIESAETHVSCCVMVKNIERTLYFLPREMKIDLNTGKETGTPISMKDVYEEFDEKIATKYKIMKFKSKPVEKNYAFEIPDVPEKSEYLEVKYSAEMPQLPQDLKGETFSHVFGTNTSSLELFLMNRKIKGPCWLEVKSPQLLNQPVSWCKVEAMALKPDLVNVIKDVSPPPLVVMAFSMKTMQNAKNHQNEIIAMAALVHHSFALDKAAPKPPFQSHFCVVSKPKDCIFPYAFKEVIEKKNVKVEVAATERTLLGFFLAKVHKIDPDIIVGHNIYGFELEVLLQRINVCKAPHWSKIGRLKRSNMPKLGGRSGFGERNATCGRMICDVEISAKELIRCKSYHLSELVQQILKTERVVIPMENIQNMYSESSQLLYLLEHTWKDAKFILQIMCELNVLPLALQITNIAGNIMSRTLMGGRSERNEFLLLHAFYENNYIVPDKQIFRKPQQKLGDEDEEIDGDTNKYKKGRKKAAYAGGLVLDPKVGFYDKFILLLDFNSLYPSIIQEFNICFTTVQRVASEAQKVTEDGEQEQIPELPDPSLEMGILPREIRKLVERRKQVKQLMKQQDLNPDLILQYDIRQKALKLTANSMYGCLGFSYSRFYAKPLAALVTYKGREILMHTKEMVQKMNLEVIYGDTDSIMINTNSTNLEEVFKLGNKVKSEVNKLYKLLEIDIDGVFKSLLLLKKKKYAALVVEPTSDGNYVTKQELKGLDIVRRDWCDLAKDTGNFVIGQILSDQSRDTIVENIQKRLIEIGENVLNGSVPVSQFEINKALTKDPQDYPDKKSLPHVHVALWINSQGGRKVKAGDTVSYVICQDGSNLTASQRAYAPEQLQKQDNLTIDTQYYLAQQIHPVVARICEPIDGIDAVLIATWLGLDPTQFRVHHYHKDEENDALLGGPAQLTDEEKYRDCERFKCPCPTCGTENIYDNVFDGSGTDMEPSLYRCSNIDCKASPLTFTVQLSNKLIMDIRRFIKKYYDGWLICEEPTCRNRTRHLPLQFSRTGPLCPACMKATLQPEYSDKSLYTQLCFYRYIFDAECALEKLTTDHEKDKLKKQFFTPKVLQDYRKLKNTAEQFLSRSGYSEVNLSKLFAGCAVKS
T2 sequence (Q14181 whole entry partner): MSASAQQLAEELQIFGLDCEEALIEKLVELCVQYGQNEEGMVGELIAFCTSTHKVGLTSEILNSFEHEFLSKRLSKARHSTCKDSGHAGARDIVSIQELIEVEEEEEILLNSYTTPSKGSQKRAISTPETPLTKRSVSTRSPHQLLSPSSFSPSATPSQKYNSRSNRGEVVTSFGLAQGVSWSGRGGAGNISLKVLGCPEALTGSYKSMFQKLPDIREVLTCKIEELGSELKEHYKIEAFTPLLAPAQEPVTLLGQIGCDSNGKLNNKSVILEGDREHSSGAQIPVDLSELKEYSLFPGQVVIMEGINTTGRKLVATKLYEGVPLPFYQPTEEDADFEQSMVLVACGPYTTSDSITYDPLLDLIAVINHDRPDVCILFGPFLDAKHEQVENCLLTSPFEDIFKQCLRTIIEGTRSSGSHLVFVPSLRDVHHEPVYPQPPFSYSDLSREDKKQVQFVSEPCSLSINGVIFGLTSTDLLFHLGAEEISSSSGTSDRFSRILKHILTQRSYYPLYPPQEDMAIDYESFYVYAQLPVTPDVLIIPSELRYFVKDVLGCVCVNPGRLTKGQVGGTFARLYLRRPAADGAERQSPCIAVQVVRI
T2 sequence (P49642 whole entry partner): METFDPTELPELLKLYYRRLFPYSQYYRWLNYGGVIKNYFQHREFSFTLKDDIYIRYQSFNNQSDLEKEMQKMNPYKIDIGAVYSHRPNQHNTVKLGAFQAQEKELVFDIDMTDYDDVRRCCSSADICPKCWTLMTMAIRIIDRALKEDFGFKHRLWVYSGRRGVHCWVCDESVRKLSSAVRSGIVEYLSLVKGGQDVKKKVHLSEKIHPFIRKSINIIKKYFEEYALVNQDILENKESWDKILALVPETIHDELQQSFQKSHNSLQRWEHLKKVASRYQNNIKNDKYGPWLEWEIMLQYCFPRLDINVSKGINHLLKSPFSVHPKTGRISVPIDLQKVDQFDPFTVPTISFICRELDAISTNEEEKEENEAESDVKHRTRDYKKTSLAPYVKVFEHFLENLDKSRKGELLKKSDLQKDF
T2 sequence (P49643 whole entry partner): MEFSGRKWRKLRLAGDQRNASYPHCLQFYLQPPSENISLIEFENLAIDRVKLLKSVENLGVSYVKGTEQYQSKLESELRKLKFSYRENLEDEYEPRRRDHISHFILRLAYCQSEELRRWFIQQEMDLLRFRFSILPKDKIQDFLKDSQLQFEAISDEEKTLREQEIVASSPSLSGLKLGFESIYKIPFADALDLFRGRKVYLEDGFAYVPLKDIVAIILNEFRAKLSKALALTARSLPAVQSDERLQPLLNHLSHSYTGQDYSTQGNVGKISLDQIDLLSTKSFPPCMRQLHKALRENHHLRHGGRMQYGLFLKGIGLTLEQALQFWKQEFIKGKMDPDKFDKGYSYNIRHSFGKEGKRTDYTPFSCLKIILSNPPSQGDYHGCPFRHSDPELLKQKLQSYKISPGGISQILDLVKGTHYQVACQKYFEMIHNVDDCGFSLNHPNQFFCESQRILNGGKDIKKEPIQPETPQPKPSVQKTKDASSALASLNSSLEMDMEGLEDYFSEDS

HeLa cells [3] = conditions: background statement, 'in vivo'; cited from earlier work
HeLa cell polymerase α [4] = target: T2, HeLa cell polymerase α; assay: DNA polymerase α assay, standard assay conditions; format: biochemical; conditions: for effect on HeLa cell polymerase α (in words): 400 μM; for CMP Incorporated, Pol α: additive at 400 M (so in the source), DMSO control 15,040
Method: as §1

HeLa cell polymerase β = HeLa cell polymerase β (Homo sapiens, UniProt P06746); assay: DNA polymerase β assay, standard assay conditions; format: biochemical; conditions: for effect on HeLa cell polymerase β (in words): 400 μM; for CMP Incorporated, Pol β: additive at 400 M (so in the source), DMSO control 5,221
Method: as §1

HeLa cell polymerase γ = target: T3, HeLa cell polymerase γ (Homo sapiens, UniProt P54098); assay: DNA polymerase γ assay, standard assay conditions; format: biochemical; conditions: for effect on HeLa cell polymerase γ (in words): 400 μM; for CMP Incorporated, Pol γ: additive at 400 M (so in the source), DMSO control 7,490
T3 sequence (P54098 1-1239): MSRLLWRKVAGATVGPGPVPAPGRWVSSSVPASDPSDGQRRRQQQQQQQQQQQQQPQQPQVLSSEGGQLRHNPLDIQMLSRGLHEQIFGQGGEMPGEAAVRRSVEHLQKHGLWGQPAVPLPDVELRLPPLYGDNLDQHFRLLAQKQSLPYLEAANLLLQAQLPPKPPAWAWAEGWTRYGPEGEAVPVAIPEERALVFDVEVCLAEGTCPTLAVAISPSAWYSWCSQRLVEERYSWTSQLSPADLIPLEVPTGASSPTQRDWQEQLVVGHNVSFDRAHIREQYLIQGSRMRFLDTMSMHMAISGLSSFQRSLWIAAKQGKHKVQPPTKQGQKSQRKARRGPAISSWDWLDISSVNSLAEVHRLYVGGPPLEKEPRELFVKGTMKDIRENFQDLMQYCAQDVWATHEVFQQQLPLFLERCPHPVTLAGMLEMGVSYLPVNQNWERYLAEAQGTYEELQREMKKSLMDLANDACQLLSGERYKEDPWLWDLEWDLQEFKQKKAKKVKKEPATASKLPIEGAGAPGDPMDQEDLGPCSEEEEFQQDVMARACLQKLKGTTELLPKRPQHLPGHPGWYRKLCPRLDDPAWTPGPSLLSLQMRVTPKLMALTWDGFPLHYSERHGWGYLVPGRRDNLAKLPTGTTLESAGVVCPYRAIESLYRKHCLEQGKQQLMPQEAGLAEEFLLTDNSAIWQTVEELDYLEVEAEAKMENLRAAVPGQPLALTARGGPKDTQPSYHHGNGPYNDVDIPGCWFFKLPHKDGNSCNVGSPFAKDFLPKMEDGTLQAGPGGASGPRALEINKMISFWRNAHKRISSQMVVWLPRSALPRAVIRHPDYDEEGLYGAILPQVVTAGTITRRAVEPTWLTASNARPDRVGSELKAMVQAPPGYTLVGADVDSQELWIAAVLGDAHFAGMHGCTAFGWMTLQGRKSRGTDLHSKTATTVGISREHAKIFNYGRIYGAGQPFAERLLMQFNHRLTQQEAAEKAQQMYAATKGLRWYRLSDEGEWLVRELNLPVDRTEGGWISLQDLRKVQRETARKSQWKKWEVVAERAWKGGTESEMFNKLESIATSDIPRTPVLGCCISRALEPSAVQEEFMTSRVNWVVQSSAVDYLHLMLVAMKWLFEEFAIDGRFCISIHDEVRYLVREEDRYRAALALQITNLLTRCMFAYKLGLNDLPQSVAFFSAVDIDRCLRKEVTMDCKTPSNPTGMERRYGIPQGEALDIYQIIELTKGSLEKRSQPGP
T3 sequence (Q9UHN1 2-485 partner): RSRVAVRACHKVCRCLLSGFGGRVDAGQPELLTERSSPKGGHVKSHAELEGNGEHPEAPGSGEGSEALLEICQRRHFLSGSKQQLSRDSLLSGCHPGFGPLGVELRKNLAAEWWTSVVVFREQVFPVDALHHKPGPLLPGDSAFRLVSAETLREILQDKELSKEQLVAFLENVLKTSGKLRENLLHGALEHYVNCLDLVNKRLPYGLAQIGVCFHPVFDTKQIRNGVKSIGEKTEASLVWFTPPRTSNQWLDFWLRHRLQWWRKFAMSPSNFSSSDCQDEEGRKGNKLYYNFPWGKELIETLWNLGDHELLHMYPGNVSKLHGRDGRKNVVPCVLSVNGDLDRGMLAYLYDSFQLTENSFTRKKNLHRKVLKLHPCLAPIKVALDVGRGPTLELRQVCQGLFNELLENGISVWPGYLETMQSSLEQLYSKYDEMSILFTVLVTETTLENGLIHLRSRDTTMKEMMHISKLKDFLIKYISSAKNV
Method: as §1

HeLa cells [5] = assay: Inhibition of cell proliferation, HeLa (TdT-negative); format: cell-based, Human; conditions: even at 400 μM; 1% DMSO; viable cells at 72 hours
Method: (§2) HeLa cells, El-4cells, L1210 cells were grown in suspended cell culture under standard conditions in RPMI medium, at 37° C. in moist air containing 5% CO2. All inhibitions were performed using a final concentration of 1% DMSO as inhibitor solvent. Control cells were therefore grown in the presence of 1% DMSO.
(§3) Compound GW18C (6-(p-aminoanilo) uracil) was prepared as a 40 mM stock solution in pre-heated DMSO. This stock solution was progressively diluted to give a range of operating inhibitory concentrations between 1×10^-9 M and […]. Inhibition was measured by comparing the number of viable cells in control cultures at the end of 72 hours with the number in cultures exposed to inhibitor.

L1210 cells = assay: Inhibition of cell proliferation, L1210 (TdT-negative); format: cell-based, Mouse; conditions: even at 400 μM; 1% DMSO; viable cells at 72 hours
Method: as §2, §3

EL-4 = assay: Inhibition of cell proliferation, EL-4 (TdT-positive); format: cell-based, Mouse
Method: as §2, §3

Compound: CCCCc1ccc(Nc2cc(=O)[nH]c(=O)[nH]2)cc1 [6-(p-n-butylanilino) uracil]
inhibition of DNA polymerase alpha of HeLa cells (in words) (HeLa cell polymerase α [2]): specific inhibitor | inhibition of HeLa cell division and DNA synthesis (in words) (HeLa cells [3]): selective inhibitor

Compound: O=c1cc(NCc2ccccc2)[nH]c(=O)[nH]1 [GW-7B, 6-(benzylamino)uracil]
CMP 3H--dGMP inc. [1]: 12,780 CMP

Compound: O=c1cc(NCCc2ccccc2)[nH]c(=O)[nH]1 [GW-7C, 6-(phenethylamino)uracil]
CMP 3H--dGMP inc. [1]: 12,391 CMP

Compound: O=c1cc(Nc2ccccc2)[nH]c(=O)[nH]1 [GW-9E, 6-anilinouracil]
CMP 3H--dGMP inc. [1]: 10,350 CMP

Compound: CCCCc1ccc(Nc2cc(=O)[nH]c(=O)[nH]2)cc1 [GW-11D, 6-(p-butylanilino)uracil]
CMP 3H--dGMP inc. [1]: 10,925 CMP

Compound: CC(=O)Nc1ccc(CNc2cc(=O)[nH]c(=O)[nH]2)cc1 [GW-16C, 6-(p-acetamidobenzylamino)uracil]
CMP 3H--dGMP inc. [1]: 14,160 CMP

Compound: O=c1cc(Nc2ccc3c(c2)CCC3)[nH]c(=O)[nH]1 [GW-17B, 6-(3',4'-trimethyleneanilino)uracil]
CMP 3H--dGMP inc. [1]: 12,383 CMP

Compound: COc1ccc(Nc2cc(=O)[nH]c(=O)[nH]2)cc1 [GW-17E, 6-(p-methoxyanilo)uracil]
CMP 3H--dGMP inc. [1]: 6,980 CMP | CMP Incorporated, TdT [1]: 4,964 CMP | effect on HeLa cell polymerase α (in words) (HeLa cell polymerase α [4]): not effected | CMP Incorporated, Pol α (HeLa cell polymerase α [4]): 15,217 CMP | effect on HeLa cell polymerase β (in words) (HeLa cell polymerase β): not effected | CMP Incorporated, Pol β (HeLa cell polymerase β): 5,492 cpm | effect on HeLa cell polymerase γ (in words) (HeLa cell polymerase γ): not effected | CMP Incorporated, Pol γ (HeLa cell polymerase γ): 7,223 CMP

Compound: O=c1cc(NC2CCCCC2)[nH]c(=O)[nH]1 [GW-18B, 6-(cyclohexylamino)uracil]
CMP 3H--dGMP inc. [1]: 13,442 CMP

Compound: Nc1ccc(Nc2cc(=O)[nH]c(=O)[nH]2)cc1 [GW-18C, 6-(p-aminoanilo)uracil]
CMP 3H--dGMP inc. [1]: 5,198 CMP | CMP Incorporated, TdT [1]: 3,102 CMP | effect on HeLa cell polymerase α (in words) (HeLa cell polymerase α [4]): not effected | CMP Incorporated, Pol α (HeLa cell polymerase α [4]): 15,417 CMP | effect on HeLa cell polymerase β (in words) (HeLa cell polymerase β): not effected | CMP Incorporated, Pol β (HeLa cell polymerase β): 5,218 cpm | effect on HeLa cell polymerase γ (in words) (HeLa cell polymerase γ): not effected | CMP Incorporated, Pol γ (HeLa cell polymerase γ): 7,165 CMP | growth of HeLa cells (in words) (HeLa cells [5]): not inhibited | growth of L1210 cells (in words) (L1210 cells): not inhibited | EL-4 proliferation (in words) (EL-4; 400 μM, 1% DMSO): inhibited | inhibition at 400 µM (EL-4; Mus musculus, EL4, EL-4, at 72 hours, read-out: maximal growth inhibition): 80%

More lines, now with the values ahead:

CMP 3H--dGMP inc. [1]: 11,988 CMP
Compound: 6-(p-methoxybenzyl)-6-aminouracil [GW-33E]

CMP 3H--dGMP inc. [1]: 11,674 CMP
Compound: CCCCCNc1cc(=O)[nH]c(=O)[nH]1 [GW-18E, 6-(n-pentylamino)uracil]

CMP 3H--dGMP inc. [1]: 11,296 CMP
Compound: O=c1cc(NCC2CCCCC2)[nH]c(=O)[nH]1 [GW-20B, 6-(cyclohexylmethylamino)uracil]

CMP 3H--dGMP inc. [1]: 12,005 CMP
Compound: CC(C)CCNc1cc(=O)[nH]c(=O)[nH]1 [GW-22A, 6-(iso-pentylamino)uracil]

CMP 3H--dGMP inc. [1]: 21,760 CMP
Compound: O=c1cc(Nc2ccc(O)cc2)[nH]c(=O)[nH]1 [GW-22E, 6-(p-hydroxyanilino)uracil]

TdT inhibition (in words) [1]: not inhibitory
Compound: O=c1cc(Nc2cccc(O)c2)[nH]c(=O)[nH]1 [GW-23A]

CMP 3H--dGMP inc. [1]: 12,038 CMP
Compound: O=c1cc(Nc2cccc3ccccc23)[nH]c(=O)[nH]1 [GW-28A, 6-(d-naphthylamino)uracil]

TdT inhibition (in words) [1]: not inhibitory
Compound: Cc1ccc(Nc2cc(=O)[nH]c(=O)[nH]2)cc1CO [GW-28D]
